One data set relates to pig weed. The experiment in a line: greenhouse post-emergence herbicidal test, pig weed. It counts as in vivo, Amaranthus retroflexus. From the text:
(§1) The seeds of the test plants were sown separately for each species. For the post-emergence treatment, the test plants were first grown to a height of 3 to 15 cm, depending on the plant habit, and only then treated with the active ingredients which had been suspended or emulsified in water. For this purpose, the test plants were either sown directly and grown in the same containers, or they were first grown separately as seedlings and transplanted into the test containers a few days prior to treatment. The rate of application for the post-emergence treatment was 1.0, 0.5, 0.25, 0.125 or 0.0625 kg/ha of a.s. (active substance). Depending on the species, the plants were kept at 10-25° C. or 20-35° C. The test period extended over 2 to 4 weeks. During this time, the plants were tended, and their response to the individual treatments was evaluated. Evaluation was carried out using a scale from 0 to 100. 100 means no emergence of the plants, or complete destruction of at least the aerial parts, and 0 means no damage, or normal course of growth. The plants used in the greenhouse experiments belonged to the following species: [table]

Another data set concerns lambsquarters. As to the kind of experiment: greenhouse post-emergence herbicidal test, lambsquarters. It counts as in vivo, Chenopodium album.
From the text: as §1

The next data set concerns cleavers harrif. As to the kind of experiment: greenhouse post-emergence herbicidal test, cleavers harrif. It counts as in vivo, Galium aparine.
From the text: as §1

The subject of a further data set is black bindweed. As to the kind of experiment: greenhouse post-emergence herbicidal test, black bindweed. It counts as in vivo, Polygonum convolvulus.
From the text: as §1

A further data set relates to velvet leaf. As to the kind of experiment: greenhouse post-emergence herbicidal test, velvet leaf. It counts as in vivo, Abutilon theophrasti. The note with it: application rate 0.5 kg/ha.
From the text: as §1

The next data set relates to green foxtail. As to the kind of experiment: greenhouse post-emergence herbicidal test, green foxtail. It counts as in vivo, Setaria viridis.
From the text: as §1

For another data set, the system named is wild oat. As to the kind of experiment: greenhouse post-emergence herbicidal test, wild oat. It counts as in vivo, Avena fatua. The note with it: application rate 0.5 kg/ha.
From the text: as §1

For `CNC(=O)C(NC(=O)c1ccc(F)cc1C(F)(F)F)C(OC(=O)COCCOCCOC)c1ccccc1COC(=O)COCCOCCOC` (stereo not shown) [Compound 3.96], the “post-emergence action against pig weed” value in the data set on pig weed (application rate 0.5 kg/ha) is reported as “very good”. In the data set on lambsquarters (application rate 0.5 kg/ha), the “post-emergence action against lambsquarters” value is listed as “very good”. In the data set on cleavers harrif (application rate 0.5 kg/ha), the “post-emergence control of cleavers harrif” value is reported as “very good”. The “post-emergence action on black bindweed” value in the data set with black bindweed (application rate 0.5 kg/ha) is given as “very good”.
On to `CNC(=O)C(NC(=O)c1ccccc1OC(F)(F)F)C(O)c1ccccc1` (racemic) [Compound 5.36], for which the “post-emergence action on velvet leaf” value in the data set on velvet leaf is on record as “very good”.
As for `CNC(=O)[C@@H](NC(=O)c1ccc(F)cc1C(F)(F)F)[C@H](O)c1cccc(Cl)c1C` [Compound 3.11], the “post-emergence action against pig weed” value in the data set on pig weed (application rate 1.00 kg/ha) is listed as “very good”. In addition, in the data set on lambsquarters (application rate 1.00 kg/ha), the “post-emergence action against lambsquarters” value was “very good”. Moreover, in the data set on green foxtail (application rate 1.00 kg/ha), the “post-emergence action against green foxtail” value is recorded as “very good”.
Regarding `CNC(=O)C(NC(=O)c1ccc(F)cc1C(F)(F)F)C(OC(=O)N(C)C)c1cccc(N)c1` (racemic) [Compound 3.123], in the data set with pig weed (application rate 1.00 kg/ha), the “post-emergence action against pig weed” value is reported as “very good”. Further, the “post-emergence action against lambsquarters” value in the data set on lambsquarters (application rate 1.00 kg/ha) is recorded as “very good”. The “post-emergence action on black bindweed” value in the data set with black bindweed (application rate 1.00 kg/ha) is “very good”.
Regarding `CNC(=O)C(NC(=O)c1ccc(F)cc1C(F)(F)F)C(OC(=O)N(C)C)c1ccccc1COC(=O)N(C)C` (stereo not shown) [Compound 3.131], the “post-emergence action against pig weed” value in the data set with pig weed (application rate 0.5 kg/ha) was “very good”. For the same compound, the “post-emergence action against lambsquarters” value in the data set on lambsquarters (application rate 0.5 kg/ha) is listed as “very good”. Also, the “post-emergence control of cleavers harrif” value with cleavers harrif (application rate 0.5 kg/ha) is listed as “very good”. In addition, in the data set on black bindweed (application rate 0.5 kg/ha), the “post-emergence action on black bindweed” value is on record as “very good”.
On to `CNC(=O)C(NC(=O)c1ccc(F)cc1C(F)(F)F)C(O)c1ccccc1OCc1ccccc1` (stereo not shown) [Compound 3.66], for which the “post-emergence action against pig weed” value in the data set with pig weed (application rate 1.00 kg/ha) was “very good”. In addition, the “post-emergence action against lambsquarters” value in the data set on lambsquarters (application rate 1.00 kg/ha) is listed as “very good”. Moreover, the “post-emergence action against green foxtail” value in the data set with green foxtail (application rate 1.00 kg/ha) was “very good”.
Regarding `CNC(=O)C(NC(=O)c1ccc(F)cc1C(F)(F)F)C(O)c1ccccc1[N+](=O)[O-]` (racemic) [Compound 3.67], the “post-emergence action against pig weed” value in the data set on pig weed (application rate 1.00 kg/ha) is reported as “very good”. Further, in the data set with lambsquarters (application rate 1.00 kg/ha), the “post-emergence action against lambsquarters” value is given as “very good”. Also, the “post-emergence action against green foxtail” value in the data set on green foxtail (application rate 1.00 kg/ha) is reported as “very good”.
Regarding `CNC(=O)[C@@H](NC(=O)c1ccc(F)cc1C(F)(F)F)[C@H](OC(=O)NS(=O)(=O)C(F)(F)F)c1cccc(F)c1C` [Compound 3.137], the “post-emergence action against pig weed” value with pig weed (application rate 1.00 kg/ha) is listed as “very good”. Besides, the “post-emergence action against lambsquarters” value in the data set with lambsquarters (application rate 1.00 kg/ha) is on record as “very good”. Besides, in the data set on black bindweed (application rate 1.00 kg/ha), the “post-emergence action on black bindweed” value is reported as “very good”.
With `CNC(=O)C(NC(=O)c1ccc(F)cc1C(F)(F)F)C(O[Si](C)(C)C(C)(C)C)c1ccccc1` (racemic) [Compound 3.154], the “post-emergence action against pig weed” value in the data set with pig weed (application rate 1.00 kg/ha) is “very good”. The “post-emergence action against lambsquarters” value in the data set with lambsquarters (application rate 1.00 kg/ha) was “very good”. In the data set with green foxtail (application rate 1.00 kg/ha), the “post-emergence action against green foxtail” value is “very good”. In addition, the “post-emergence control of cleavers harrif” value in the data set on cleavers harrif (application rate 1.0 kg/ha) is listed as “very good”. In the data set on black bindweed (application rate 1.00 kg/ha), the “post-emergence action on black bindweed” value is listed as “very good”.
On to `CNC(=O)C(NC(=O)c1ccccc1C(F)(F)F)C(O)c1ccccc1` (racemic) [Compound 3.2], for which the “post-emergence action against pig weed” value in the data set on pig weed (application rate 1.00 kg/ha) was “very good”. Also, the “post-emergence action against lambsquarters” value in the data set on lambsquarters (application rate 1.00 kg/ha) is “very good”. In addition, in the data set on green foxtail (application rate 1.00 kg/ha), the “post-emergence action against green foxtail” value is reported as “very good”.
Consider `CNC(=O)C(NC(=O)c1ccc(F)cc1C(F)(F)F)C(c1ccccc1)N(C=O)Cc1ccccc1` (stereo not shown) [Compound 3.43, N-[2-(N-Benzyl-N-formylamino)-1-methylcarbamoyl-2-phenylethyl]-4-fluoro-2-trifluoromethylbenzamide], for which the melting point (in general, the temperature of the solid-liquid transition) came out at 212 °C.
Take `CNC(=O)C(NC(=O)c1ccc(F)cc1C(F)(F)F)C(O)c1ccccc1COS(C)(=O)=O` (stereo not shown) [Compound 3.65]: in the data set on pig weed (application rate 0.5 kg/ha), the “post-emergence action against pig weed” value is given as “very good”. In addition, the “post-emergence action against lambsquarters” value in the data set on lambsquarters (application rate 0.5 kg/ha) is listed as “very good”. The “post-emergence action on black bindweed” value in the data set with black bindweed (application rate 0.5 kg/ha) is listed as “very good”.
In the case of `CNC(=O)C(NC(=O)c1ccc(F)cc1C(F)(F)F)C(O)c1ccccc1CO` (stereo not shown) [Compound 3.61], the “post-emergence action against pig weed” value in the data set on pig weed (application rate 0.5 kg/ha) was “very good”. Further, in the data set with lambsquarters (application rate 0.5 kg/ha), the “post-emergence action against lambsquarters” value is reported as “very good”. Further, the “post-emergence control of cleavers harrif” value with cleavers harrif (application rate 0.5 kg/ha) is recorded as “very good”. For the same compound, the “post-emergence action on black bindweed” value with black bindweed (application rate 0.5 kg/ha) is reported as “very good”.
For `CNC(=O)C(NC(=O)c1ccccc1SC(F)F)C(O)c1ccccc1` (racemic) [Compound 5.37], the “post-emergence action on velvet leaf” value in the data set on velvet leaf is “controlled”. Also, the “post-emergence control of wild oat” value with wild oat is given as “controlled”.
Consider `CNC(=O)C(NC(=O)c1ccc(F)cc1C(F)(F)F)C(OC(=O)N(C)C)c1ccccc1C` (stereo not shown) [Compound 3.28], for which the “post-emergence action against pig weed” value in the data set with pig weed (application rate 1.00 kg/ha) is listed as “very good”. Besides, the “post-emergence action against lambsquarters” value in the data set with lambsquarters (application rate 1.00 kg/ha) is “very good”. Further, in the data set with green foxtail (application rate 1.00 kg/ha), the “post-emergence action against green foxtail” value is reported as “very good”.
For the compound `CNC(=O)C(NC(=O)c1ccc(F)cc1C(F)(F)F)C(OC(=O)N(C)C)c1cccc(NS(C)(=O)=O)c1` (racemic) [Compound 3.128], the “post-emergence action against pig weed” value in the data set with pig weed (application rate 1.00 kg/ha) is “very good”. Further, the “post-emergence action against lambsquarters” value in the data set on lambsquarters (application rate 1.00 kg/ha) is listed as “very good”. Further, the “post-emergence action against green foxtail” value with green foxtail (application rate 1.00 kg/ha) is listed as “very good”.
As for `CNC(=O)C(NC(=O)c1ccc(F)cc1C(F)(F)F)C(O)c1ccccc1COC(C)=O` (stereo not shown) [Compound 3.62], the “post-emergence action against pig weed” value in the data set with pig weed (application rate 0.5 kg/ha) is “very good”. The “post-emergence action against lambsquarters” value in the data set with lambsquarters (application rate 0.5 kg/ha) is reported as “very good”. In the data set on green foxtail (application rate 0.5 kg/ha), the “post-emergence action against green foxtail” value is “very good”. For the same compound, the “post-emergence control of cleavers harrif” value in the data set with cleavers harrif (application rate 0.5 kg/ha) is on record as “very good”.
Turning to `CNC(=O)[C@@H](NC(=O)c1ccc(F)cc1C(F)(F)F)[C@H](OC(=O)COCCOCCOC)c1ccc(F)c(F)c1F` [Compound 4.24], the “post-emergence action against pig weed” value with pig weed (application rate 0.5 kg/ha) is given as “very good”. In addition, in the data set with lambsquarters (application rate 0.5 kg/ha), the “post-emergence action against lambsquarters” value is listed as “very good”. The “post-emergence action against green foxtail” value in the data set with green foxtail (application rate 0.5 kg/ha) is given as “very good”. For the same compound, in the data set on cleavers harrif (application rate 0.5 kg/ha), the “post-emergence control of cleavers harrif” value was “very good”.
For the compound `CNC(=O)C(NC(=O)c1cccc([N+](=O)[O-])c1C)C(O)c1ccccc1` (racemic) [Compound 5.20], the “post-emergence action on velvet leaf” value in the data set on velvet leaf is on record as “very good”.
For the compound `CNC(=O)[C@@H](NC(=O)c1ccc(F)cc1C(F)(F)F)[C@H](O)c1cccc(F)c1C` [Compound 3.10], the “post-emergence action against pig weed” value in the data set with pig weed (application rate 1.00 kg/ha) is reported as “very good”. For the same compound, in the data set with lambsquarters (application rate 1.00 kg/ha), the “post-emergence action against lambsquarters” value is “very good”. Further, in the data set on green foxtail (application rate 1.00 kg/ha), the “post-emergence action against green foxtail” value is recorded as “very good”.
`CC[Si](CC)(CC)OCc1ccccc1C(O[Si](CC)(CC)CC)C(NC(=O)c1ccc(F)cc1C(F)(F)F)C(=O)NC` (stereo not shown) [Compound 3.152]: the “post-emergence action against pig weed” value in the data set with pig weed (application rate 1.00 kg/ha) is on record as “very good”. Further, in the data set on lambsquarters (application rate 1.00 kg/ha), the “post-emergence action against lambsquarters” value is on record as “very good”. Also, the “post-emergence action against green foxtail” value in the data set with green foxtail (application rate 1.00 kg/ha) is listed as “very good”. In the data set on cleavers harrif (application rate 1.0 kg/ha), the “post-emergence control of cleavers harrif” value is on record as “very good”.

For the origin of these results see patent publication US7687435B2, “Benzoyl-substituted phenylalanineamides” (BASF Aktiengesellschaft, priority 2003, dated 2010).
